Laboratory results published in ChEMBL document CHEMBL4382269, “Discovery of Potent, Efficient, and Selective Inhibitors of Phosphoinositide 3-Kinase δ through a Deconstruction and Regrowth Approach” (J Med Chem, 2018).
Converted amounts (≈) assume the structure as drawn.

Experiments:
[1] = target: Phosphatidylinositol 4,5-bisphosphate 3-kinase catalytic subunit gamma isoform (Homo sapiens, UniProt P48736); test: Inhibition of PI3Kgamma (unknown origin) using PIP2 as substrate preincubated for 15 mins followed by substrate addition measured after 60 mins by HTRF method
Phosphatidylinositol 4,5-bisphosphate 3-kinase catalytic subunit gamma isoform, sequence (P48736 whole entry, canonical isoform): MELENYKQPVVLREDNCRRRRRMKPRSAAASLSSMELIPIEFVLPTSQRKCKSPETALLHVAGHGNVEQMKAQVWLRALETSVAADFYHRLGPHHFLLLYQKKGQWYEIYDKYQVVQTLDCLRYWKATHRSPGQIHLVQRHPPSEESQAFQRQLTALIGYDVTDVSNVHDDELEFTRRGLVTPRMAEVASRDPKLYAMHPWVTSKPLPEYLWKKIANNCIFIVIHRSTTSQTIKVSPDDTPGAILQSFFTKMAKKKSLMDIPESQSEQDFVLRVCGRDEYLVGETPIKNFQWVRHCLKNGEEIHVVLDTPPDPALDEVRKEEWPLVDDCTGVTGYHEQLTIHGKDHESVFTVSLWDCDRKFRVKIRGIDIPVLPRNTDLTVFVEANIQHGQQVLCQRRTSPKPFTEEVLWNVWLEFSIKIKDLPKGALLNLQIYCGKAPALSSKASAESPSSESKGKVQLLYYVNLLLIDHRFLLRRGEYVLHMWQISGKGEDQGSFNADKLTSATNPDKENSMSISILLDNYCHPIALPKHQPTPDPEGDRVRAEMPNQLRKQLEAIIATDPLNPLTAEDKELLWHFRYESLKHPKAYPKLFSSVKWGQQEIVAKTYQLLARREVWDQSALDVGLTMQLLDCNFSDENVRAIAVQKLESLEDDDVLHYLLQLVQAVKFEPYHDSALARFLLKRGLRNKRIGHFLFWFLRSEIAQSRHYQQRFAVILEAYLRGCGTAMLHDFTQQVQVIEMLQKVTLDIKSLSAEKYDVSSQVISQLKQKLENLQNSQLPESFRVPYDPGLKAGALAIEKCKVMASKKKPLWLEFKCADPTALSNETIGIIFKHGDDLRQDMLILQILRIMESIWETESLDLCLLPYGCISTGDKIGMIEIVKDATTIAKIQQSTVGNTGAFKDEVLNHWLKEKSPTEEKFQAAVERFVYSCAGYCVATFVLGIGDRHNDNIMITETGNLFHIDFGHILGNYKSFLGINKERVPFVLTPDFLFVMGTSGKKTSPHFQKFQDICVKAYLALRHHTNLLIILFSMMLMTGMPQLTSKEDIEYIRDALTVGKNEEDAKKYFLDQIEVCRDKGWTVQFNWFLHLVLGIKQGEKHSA

[2] = target: Phosphatidylinositol 4,5-bisphosphate 3-kinase catalytic subunit alpha isoform (Homo sapiens, UniProt P42336); test: Inhibition of PI3Kalpha (unknown origin) using PIP2 as substrate preincubated for 15 mins followed by substrate addition measured after 60 mins by HTRF method
Phosphatidylinositol 4,5-bisphosphate 3-kinase catalytic subunit alpha isoform, sequence (P42336 whole entry, canonical isoform): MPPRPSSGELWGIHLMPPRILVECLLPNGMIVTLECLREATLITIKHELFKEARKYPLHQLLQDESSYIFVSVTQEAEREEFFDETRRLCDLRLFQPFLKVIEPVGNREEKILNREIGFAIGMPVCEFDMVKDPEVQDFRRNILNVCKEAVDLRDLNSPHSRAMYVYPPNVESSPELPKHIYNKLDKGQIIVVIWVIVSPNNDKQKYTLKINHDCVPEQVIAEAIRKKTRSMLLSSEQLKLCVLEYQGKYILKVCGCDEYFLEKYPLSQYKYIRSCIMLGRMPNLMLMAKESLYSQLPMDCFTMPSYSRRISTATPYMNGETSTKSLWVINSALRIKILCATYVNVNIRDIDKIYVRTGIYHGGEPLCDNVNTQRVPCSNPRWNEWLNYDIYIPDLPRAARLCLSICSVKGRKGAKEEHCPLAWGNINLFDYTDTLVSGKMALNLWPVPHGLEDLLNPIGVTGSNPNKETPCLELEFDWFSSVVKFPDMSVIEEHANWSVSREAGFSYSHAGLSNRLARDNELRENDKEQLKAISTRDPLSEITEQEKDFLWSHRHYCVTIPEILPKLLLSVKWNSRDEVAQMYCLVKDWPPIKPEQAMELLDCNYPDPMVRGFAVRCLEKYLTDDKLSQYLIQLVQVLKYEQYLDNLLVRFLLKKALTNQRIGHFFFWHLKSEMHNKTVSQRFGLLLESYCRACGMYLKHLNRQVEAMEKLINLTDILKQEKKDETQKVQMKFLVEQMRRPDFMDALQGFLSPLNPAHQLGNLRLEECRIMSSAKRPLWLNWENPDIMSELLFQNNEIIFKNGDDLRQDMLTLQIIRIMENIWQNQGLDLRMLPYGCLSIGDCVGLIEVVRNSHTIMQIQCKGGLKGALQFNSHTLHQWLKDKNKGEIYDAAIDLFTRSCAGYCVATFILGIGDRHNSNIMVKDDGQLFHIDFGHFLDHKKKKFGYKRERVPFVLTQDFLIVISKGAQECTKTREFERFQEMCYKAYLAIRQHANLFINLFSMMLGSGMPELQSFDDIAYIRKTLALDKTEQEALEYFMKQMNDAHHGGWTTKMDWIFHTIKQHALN

[3] = target: Phosphatidylinositol 4,5-bisphosphate 3-kinase catalytic subunit beta isoform (Homo sapiens, UniProt P42338); test: Inhibition of PI3Kbeta (unknown origin) using PIP2 as substrate preincubated for 15 mins followed by substrate addition measured after 60 mins by HTRF method
Phosphatidylinositol 4,5-bisphosphate 3-kinase catalytic subunit beta isoform, sequence (P42338 whole entry, canonical isoform): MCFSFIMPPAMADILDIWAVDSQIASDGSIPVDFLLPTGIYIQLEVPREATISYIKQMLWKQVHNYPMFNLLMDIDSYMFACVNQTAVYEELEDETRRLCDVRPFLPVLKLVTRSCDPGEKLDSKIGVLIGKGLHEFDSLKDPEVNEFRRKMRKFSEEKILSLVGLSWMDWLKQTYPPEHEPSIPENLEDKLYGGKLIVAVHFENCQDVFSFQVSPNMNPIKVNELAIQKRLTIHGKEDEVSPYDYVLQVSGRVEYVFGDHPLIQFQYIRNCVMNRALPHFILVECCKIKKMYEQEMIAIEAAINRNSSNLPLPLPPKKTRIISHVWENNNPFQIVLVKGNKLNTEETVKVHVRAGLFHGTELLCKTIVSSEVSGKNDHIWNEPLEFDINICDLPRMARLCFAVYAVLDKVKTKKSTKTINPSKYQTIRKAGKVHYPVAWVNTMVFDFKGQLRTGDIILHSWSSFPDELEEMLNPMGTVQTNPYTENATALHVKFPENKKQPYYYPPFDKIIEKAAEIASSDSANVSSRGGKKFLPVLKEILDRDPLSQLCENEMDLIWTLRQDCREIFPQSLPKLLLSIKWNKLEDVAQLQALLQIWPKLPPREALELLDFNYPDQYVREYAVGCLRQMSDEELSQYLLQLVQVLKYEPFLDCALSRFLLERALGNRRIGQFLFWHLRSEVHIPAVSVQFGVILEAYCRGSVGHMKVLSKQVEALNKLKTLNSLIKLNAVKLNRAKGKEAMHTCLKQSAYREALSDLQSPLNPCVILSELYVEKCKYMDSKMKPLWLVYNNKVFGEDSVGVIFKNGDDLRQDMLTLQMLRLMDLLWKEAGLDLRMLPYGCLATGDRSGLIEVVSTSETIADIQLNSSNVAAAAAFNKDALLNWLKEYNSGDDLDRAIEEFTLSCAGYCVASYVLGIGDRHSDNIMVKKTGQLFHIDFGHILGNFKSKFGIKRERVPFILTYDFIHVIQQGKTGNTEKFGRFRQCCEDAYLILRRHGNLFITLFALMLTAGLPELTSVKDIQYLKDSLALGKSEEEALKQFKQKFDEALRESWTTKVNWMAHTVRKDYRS

[4] = target: T1, Phosphatidylinositol 4,5-bisphosphate 3-kinase catalytic subunit delta isoform (Homo sapiens, UniProt O00329); test: Inhibition of PI3Kdelta (unknown origin) using PIP2 as substrate preincubated for 15 mins followed by substrate addition measured after 60 mins by HTRF method
T1 sequence (O00329 whole entry): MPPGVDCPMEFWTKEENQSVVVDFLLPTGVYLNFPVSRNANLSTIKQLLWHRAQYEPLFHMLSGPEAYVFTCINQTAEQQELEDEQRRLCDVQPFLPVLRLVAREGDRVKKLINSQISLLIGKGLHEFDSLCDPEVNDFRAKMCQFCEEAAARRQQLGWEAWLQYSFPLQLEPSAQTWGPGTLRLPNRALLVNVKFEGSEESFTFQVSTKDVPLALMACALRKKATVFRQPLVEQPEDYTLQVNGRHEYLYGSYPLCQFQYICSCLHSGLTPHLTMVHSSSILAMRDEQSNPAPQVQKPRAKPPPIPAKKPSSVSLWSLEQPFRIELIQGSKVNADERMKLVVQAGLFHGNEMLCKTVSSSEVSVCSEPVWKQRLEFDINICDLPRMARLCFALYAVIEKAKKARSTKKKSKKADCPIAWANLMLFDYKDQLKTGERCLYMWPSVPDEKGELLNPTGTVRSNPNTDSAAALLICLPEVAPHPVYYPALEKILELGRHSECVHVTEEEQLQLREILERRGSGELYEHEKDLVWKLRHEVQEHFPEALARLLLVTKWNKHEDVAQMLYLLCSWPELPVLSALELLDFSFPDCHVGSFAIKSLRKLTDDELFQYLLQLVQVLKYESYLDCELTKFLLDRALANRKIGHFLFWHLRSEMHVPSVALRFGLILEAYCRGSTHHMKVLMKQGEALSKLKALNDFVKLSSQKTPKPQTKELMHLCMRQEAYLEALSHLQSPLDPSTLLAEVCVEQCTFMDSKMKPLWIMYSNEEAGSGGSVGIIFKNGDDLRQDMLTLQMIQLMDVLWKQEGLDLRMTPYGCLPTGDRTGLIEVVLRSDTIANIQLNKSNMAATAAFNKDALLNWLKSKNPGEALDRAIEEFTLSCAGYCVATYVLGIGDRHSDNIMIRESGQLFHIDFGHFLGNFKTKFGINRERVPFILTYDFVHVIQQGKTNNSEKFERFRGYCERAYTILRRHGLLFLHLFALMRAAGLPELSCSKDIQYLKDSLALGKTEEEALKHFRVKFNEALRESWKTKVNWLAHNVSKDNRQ

Homo sapiens [5] = organism: Homo sapiens; test: Selectivity ratio of IC50 for PI4KB (unknown origin) to IC50 for PI3Kdelta (unknown origin)
Homo sapiens [6] = organism: Homo sapiens; test: Selectivity ratio of IC50 for JAK3 (unknown origin) to IC50 for PI3Kdelta (unknown origin)
Homo sapiens [7] = organism: Homo sapiens; test: Selectivity ratio of IC50 for mTOR (unknown origin) to IC50 for PI3Kdelta (unknown origin)
Homo sapiens [8] = organism: Homo sapiens; test: Selectivity ratio of IC50 for p38alpha (unknown origin) to IC50 for PI3Kdelta (unknown origin)
Homo sapiens [9] = organism: Homo sapiens; test: Selectivity ratio of IC50 for ASK1 (unknown origin) to IC50 for PI3Kdelta (unknown origin)
Homo sapiens [10] = organism: Homo sapiens; test: Selectivity ratio of IC50 for DNA-PK (unknown origin) to IC50 for PI3Kdelta (unknown origin)
Homo sapiens [11] = organism: Homo sapiens; test: Selectivity ratio of IC50 for DAG zeta (unknown origin) to IC50 for PI3Kdelta (unknown origin)
Homo sapiens [12] = organism: Homo sapiens; test: Selectivity ratio of IC50 for EGFR (unknown origin) to IC50 for PI3Kdelta (unknown origin)
Homo sapiens [13] = organism: Homo sapiens; test: Selectivity ratio of IC50 for CHKB (unknown origin) to IC50 for PI3Kdelta (unknown origin)
serum albumin = serum albumin (Homo sapiens, UniProt P02768); test: Binding affinity to human serum albumin by HPLC analysis; format: ADME; details: read-out: PB (converted)
serum albumin, sequence (P02768 whole entry): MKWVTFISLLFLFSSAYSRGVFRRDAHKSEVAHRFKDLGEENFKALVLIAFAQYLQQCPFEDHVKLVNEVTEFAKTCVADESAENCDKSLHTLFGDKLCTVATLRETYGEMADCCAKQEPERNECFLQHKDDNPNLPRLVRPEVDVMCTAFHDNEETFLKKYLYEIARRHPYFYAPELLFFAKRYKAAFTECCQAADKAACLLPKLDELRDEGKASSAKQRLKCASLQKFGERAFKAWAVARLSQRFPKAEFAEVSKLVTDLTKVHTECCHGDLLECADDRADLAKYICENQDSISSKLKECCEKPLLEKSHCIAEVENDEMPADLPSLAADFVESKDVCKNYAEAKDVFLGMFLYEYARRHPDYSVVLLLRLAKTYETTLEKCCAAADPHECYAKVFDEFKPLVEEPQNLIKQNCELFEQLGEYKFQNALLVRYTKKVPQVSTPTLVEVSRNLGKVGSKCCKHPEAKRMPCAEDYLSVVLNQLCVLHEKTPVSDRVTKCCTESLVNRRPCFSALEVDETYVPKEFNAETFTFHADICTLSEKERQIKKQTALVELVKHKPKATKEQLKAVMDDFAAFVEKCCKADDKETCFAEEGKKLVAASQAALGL

[14] = target: Voltage-gated inwardly rectifying potassium channel KCNH2 (Homo sapiens, UniProt Q12809); test: Inhibition of human ERG expressed in CHO cells after 75 mins by fluorescence polarization assay
Voltage-gated inwardly rectifying potassium channel KCNH2, sequence (Q12809 whole entry): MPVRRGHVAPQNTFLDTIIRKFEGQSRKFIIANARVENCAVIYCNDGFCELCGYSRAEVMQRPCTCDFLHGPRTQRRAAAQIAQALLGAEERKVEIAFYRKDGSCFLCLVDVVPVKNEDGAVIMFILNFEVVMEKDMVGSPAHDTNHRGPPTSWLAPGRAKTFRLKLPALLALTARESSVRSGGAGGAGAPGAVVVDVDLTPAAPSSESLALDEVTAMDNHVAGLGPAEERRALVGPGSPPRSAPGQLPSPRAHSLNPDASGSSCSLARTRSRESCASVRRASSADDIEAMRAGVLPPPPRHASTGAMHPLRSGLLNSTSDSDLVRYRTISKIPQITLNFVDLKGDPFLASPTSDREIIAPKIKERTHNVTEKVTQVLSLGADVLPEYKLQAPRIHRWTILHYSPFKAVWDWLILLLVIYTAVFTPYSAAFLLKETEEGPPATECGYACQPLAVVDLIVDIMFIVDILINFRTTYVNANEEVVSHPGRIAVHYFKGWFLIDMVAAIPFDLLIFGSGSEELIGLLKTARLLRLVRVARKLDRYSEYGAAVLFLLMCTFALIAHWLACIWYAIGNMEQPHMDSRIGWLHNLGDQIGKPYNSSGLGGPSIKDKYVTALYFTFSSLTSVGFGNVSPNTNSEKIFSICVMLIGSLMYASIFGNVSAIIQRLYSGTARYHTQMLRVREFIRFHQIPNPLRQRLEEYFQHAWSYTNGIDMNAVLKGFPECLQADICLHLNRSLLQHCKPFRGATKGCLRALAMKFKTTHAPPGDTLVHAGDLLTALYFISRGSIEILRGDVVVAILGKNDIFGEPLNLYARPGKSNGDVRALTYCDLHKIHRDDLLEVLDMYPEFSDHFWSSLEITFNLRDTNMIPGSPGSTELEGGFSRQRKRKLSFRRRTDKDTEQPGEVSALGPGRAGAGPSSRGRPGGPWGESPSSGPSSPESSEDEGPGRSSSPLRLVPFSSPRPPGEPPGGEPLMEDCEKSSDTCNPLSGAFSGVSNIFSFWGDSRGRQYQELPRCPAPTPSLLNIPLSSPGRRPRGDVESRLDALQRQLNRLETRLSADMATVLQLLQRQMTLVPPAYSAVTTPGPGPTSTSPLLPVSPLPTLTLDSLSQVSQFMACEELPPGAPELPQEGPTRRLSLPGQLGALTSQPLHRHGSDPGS

Homo sapiens [15] = organism: Homo sapiens; test: Selectivity ratio of IC50 for PI3Kbeta (unknown origin) to IC50 for PI3Kdelta (unknown origin)
[16] = Clearance in rat microsomes at 0.5 uM in presence of NADPH measured up to 30 mins by LC-MS/MS analysis; format: ADME, Microsome; details: 0.5 h
Homo sapiens [17] = organism: Homo sapiens; test: Selectivity ratio of IC50 for LRRK2 (unknown origin) to IC50 for PI3Kdelta (unknown origin)
Homo sapiens [18] = organism: Homo sapiens; test: Selectivity ratio of IC50 for CHKA (unknown origin) to IC50 for PI3Kdelta (unknown origin)
Homo sapiens [19] = organism: Homo sapiens; test: Selectivity ratio of IC50 for PI3Kalpha (unknown origin) to IC50 for PI3Kdelta (unknown origin)
Homo sapiens [20] = organism: Homo sapiens; test: Selectivity ratio of IC50 for SYK (unknown origin) to IC50 for PI3Kdelta (unknown origin)
Homo sapiens [21] = organism: Homo sapiens; test: Selectivity ratio of IC50 for LCK (unknown origin) to IC50 for PI3Kdelta (unknown origin)
[22] = Kinetic solubility of the compound in phosphate buffer saline at pH 7.4 after 1 hr by CLND method; format: physicochemical; details: phosphate buffered saline, read-out: Kinetic_solubility
Homo sapiens [23] = organism: Homo sapiens; test: Selectivity ratio of IC50 for DAG gamma (unknown origin) to IC50 for PI3Kdelta (unknown origin)
Homo sapiens [24] = organism: Homo sapiens; test: Selectivity ratio of IC50 for IKK2 (unknown origin) to IC50 for PI3Kdelta (unknown origin)
Homo sapiens [25] = organism: Homo sapiens; test: Selectivity ratio of IC50 for DAG beta (unknown origin) to IC50 for PI3Kdelta (unknown origin)
Homo sapiens [26] = organism: Homo sapiens; test: Selectivity ratio of IC50 for BTK (unknown origin) to IC50 for PI3Kdelta (unknown origin)
Homo sapiens [27] = organism: Homo sapiens; test: Selectivity ratio of IC50 for ITK (unknown origin) to IC50 for PI3Kdelta (unknown origin)
Homo sapiens [28] = organism: Homo sapiens; test: Selectivity ratio of IC50 for PI4KA (unknown origin) to IC50 for PI3Kdelta (unknown origin)
Homo sapiens [29] = organism: Homo sapiens; test: Selectivity ratio of IC50 for PIP4K2A (unknown origin) to IC50 for PI3Kdelta (unknown origin)
[30] = Clearance in human microsomes at 0.5 uM in presence of NADPH measured up to 30 mins by LC-MS/MS analysis; format: ADME, Microsome; details: 0.5 h
Homo sapiens [31] = organism: Homo sapiens; test: Selectivity ratio of IC50 for PIK3C3/PIK3R4 (unknown origin) to IC50 for PI3Kdelta (unknown origin)
Homo sapiens [32] = organism: Homo sapiens; test: Selectivity ratio of IC50 for PI3Kgamma (unknown origin) to IC50 for PI3Kdelta (unknown origin)
Homo sapiens [33] = organism: Homo sapiens; test: Selectivity ratio of IC50 for JAK2 (unknown origin) to IC50 for PI3Kdelta (unknown origin)
Homo sapiens [34] = organism: Homo sapiens; test: Selectivity ratio of IC50 for ROCK (unknown origin) to IC50 for PI3Kdelta (unknown origin)
Homo sapiens [35] = organism: Homo sapiens; test: Selectivity ratio of IC50 for SPHK2 (unknown origin) to IC50 for PI3Kdelta (unknown origin)
Homo sapiens [36] = organism: Homo sapiens; test: Selectivity ratio of IC50 for SPHK1 (unknown origin) to IC50 for PI3Kdelta (unknown origin)
Homo sapiens [37] = organism: Homo sapiens; test: Selectivity ratio of IC50 for Aurora B (unknown origin) to IC50 for PI3Kdelta (unknown origin)
Homo sapiens [38] = organism: Homo sapiens; test: Selectivity ratio of IC50 for JNK1 (unknown origin) to IC50 for PI3Kdelta (unknown origin)
PBMC = test: Inhibition of cytostim stimulated IFNgamma production in human PBMC […] by electrochemiluminescence assay; format: functional, cell-based
Homo sapiens [39] = organism: Homo sapiens; test: Selectivity ratio of IC50 for PIK3C2B (unknown origin) to IC50 for PI3Kdelta (unknown origin)
Homo sapiens [40] = organism: Homo sapiens; test: Selectivity ratio of IC50 for IKK1 (unknown origin) to IC50 for PI3Kdelta (unknown origin)

c1cc(-c2ccc3ccncc3c2)c2cc[nH]c2c1
IC50 [1]: 15.8 µM
IC50 [2]: > 31.6 µM
IC50 [3]: 15.8 µM
IC50 [4]: 3.98 µM

O=S(=O)(Nc1cc(C2=CCOCC2)cnc1Cl)c1ccccc1
IC50 [1]: 0.501 µM
IC50 [2]: 0.501 µM
IC50 [3]: 0.126 µM
IC50 [4]: 0.01 µM

COc1ncc(C2=CCOCC2)cc1NS(=O)(=O)c1cn(Cc2ccccc2)c(C)n1
Ratio IC50 (Homo sapiens [5]): > 100
IC50 [1]: 1 µM
Ratio IC50 (Homo sapiens [6]): > 100
Ratio IC50 (Homo sapiens [7]): > 100
IC50 [2]: 0.631 µM
Ratio IC50 (Homo sapiens [8]): > 100
Ratio IC50 (Homo sapiens [9]): > 100
Ratio IC50 (Homo sapiens [10]): > 100
Ratio IC50 (Homo sapiens [11]): > 100
Ratio IC50 (Homo sapiens [12]): > 100
Ratio IC50 (Homo sapiens [13]): > 100
fraction unbound (serum albumin): 0.101
IC50 [14]: > 50.1 µM
Ratio IC50 (Homo sapiens [15]): > 100
clearance [16]: 17.4 mL/min/g
Ratio IC50 (Homo sapiens [17]): > 100
Ratio IC50 (Homo sapiens [18]): > 100
Ratio IC50 (Homo sapiens [19]): > 100
Ratio IC50 (Homo sapiens [20]): > 100
Ratio IC50 (Homo sapiens [21]): > 100
solubility kinetic at 1 h [22]: 12 µg/mL (≈ 27.2 µM)
Ratio IC50 (Homo sapiens [23]): > 100
Ratio IC50 (Homo sapiens [24]): > 100
IC50 [3]: 1 µM
Ratio IC50 (Homo sapiens [25]): > 100
Ratio IC50 (Homo sapiens [26]): > 100
IC50 [4]: 0.00631 µM
Ratio IC50 (Homo sapiens [27]): > 100
Ratio IC50 (Homo sapiens [28]): > 100
Ratio IC50 (Homo sapiens [29]): > 100
clearance [30]: 7.9 mL/min/g
Ratio IC50 (Homo sapiens [31]): > 100
Ratio IC50 (Homo sapiens [32]): > 100
Ratio IC50 (Homo sapiens [33]): > 100
Ratio IC50 (Homo sapiens [34]): > 100
Ratio IC50 (Homo sapiens [35]): > 100
Ratio IC50 (Homo sapiens [36]): > 100
Ratio IC50 (Homo sapiens [37]): > 100
Ratio IC50 (Homo sapiens [38]): > 100
IC50 (PBMC): 0.0501 µM
Ratio IC50 (Homo sapiens [39]): > 100
Ratio IC50 (Homo sapiens [40]): > 100
